Assay results published in patent US5244916A, “Inhibition of respiratory burst using posttranslational modification inhibitors” (The Scripps Research Institute, priority 1992, dated 1993).
“Also recorded” adds a separate entry of the source. Read-outs that look alike come from different tables or passages of the source.

Experiments:
Type in all cases: cell-based
[1] = test system: HL-60 cells (NADPH oxidase / respiratory burst); assay: O2- formation by DMSO-differentiated HL-60 cells, FMLP-stimulated (SOD-sensitive cytochrome c reduction); conditions: for activity at 0.4 µM / activity at 2 µM / activity at 4 µM / activity at 10 µM: Homo sapiens, HL-60; for activity at 0.4 µM: 0.4 μM compactin; for activity at 2 µM: 2 μM compactin; for activity at 4 µM: 4 μM compactin; for activity at 10 µM: 10 μM compactin
Method: (§1) HL-60 cells were maintained in stationary culture in RPMI 1640 medium (Gibco, Grand Island, NY) containing 10% fetal bovine serum at 37° C in an atmosphere of 95 air and 5% CO2. The cells (about 8×10^5 /ml) were differentiated into neutrophil-like cells by treatment with 1.3% DMSO for six days (Harris, et al., J. Leukocyte Biol. 37: 407-422 (1985)). The cells were treated with the indicated levels of compactin or lovastatin by addition of a 1,000-fold concentrated stock solution to the appropriate concentration on day 4 of differentiation. […] In studies of the protective effect of mevalonic acid, the compound was added as the mevalonolactone (Sigma Chemical Co., St. Louis, MO) at a concentration of 1 mM to the cell culture on days 4 to 6. Similarly, cholesterol was added in the form of LDL prepared according to the method of Curtiss and Edgington (Curtiss, et al., J. Biol. Chem. 257: 15213-15221 (1991)) at a final concentration of 50 μg/ml; ubiquinone (Sigma Chemical Co., St. Louis, MO) was added as Coenzyme Q-10 at a final concentration of 0.5 mM; and dolichol (Sigma Chemical Co., St. Louis, MO) was added as a dispersion in phosphatidylcholine at a final concentration of 0.5 mM (Cutts, et al., J. Cell Physiol. 139: 550-555 (1989)).
(§2) O2 --formation by HL-60 cells was assessed by the SOD-sensitive reduction of cytochrome c. Cells were suspended at 1×10^7 /ml in Krebs-Ringer Hepes buffer with 5.5 mM glucose (KRHG) and 50-100μl of cells were added to a cuvette containing 100 μM cytochrome c (type III, Sigma Chemical Co., St. Louis, MO), ±300 μg/ml SOD (Sigma Chemical Co., St. Louis, MO) in 700-750 μl KRHG. Cytochalasin b (Sigma Chemical Co., St. Louis, MO) was added to a final concentration of 5 μg/ml, and the cells were incubated at 37° C. for five minutes while a stable baseline at a wavelength of 550 nm was obtained. O2 --formation was initiated by the addition of 1 μM N-formylmethionylleucylphenylalanine (FMLP; Sigma Chemical Co., St. Louis, MO) or 1μg/ml phorbol myristate acetate (PMA; Sigma Chemical Co., St. Louis, MO). Cytochrome c reduction at 550nm was continuously monitored and maximal rate and extent of the reaction calculated.

[2] = test system: HL-60 cells (NADPH oxidase / respiratory burst); assay: Prevention of compactin-inhibition of FMLP-stimulated O2- formation in HL-60 cells by mevalonic acid and other supplements
Method: as §1, §2
Inhibition of protein isoprenylation can interfere with LMWG function without inhibiting overall cellular function (Maltese, supra (1990)). Since compactin inhibits at the enzymatic step preceding mevalonic acid synthesis, one should be able to reverse effects of compactin due specifically to inhibition of this pathway by addition of exogenous mevalonic acid.

[3] = test system: HL-60 cells (NADPH oxidase / respiratory burst); assay: O2- formation by DMSO-differentiated HL-60 cells, PMA-stimulated; conditions: various concentrations
Method: HL-60 cells were maintained in stationary culture in RPMI 1640 medium (Gibco, Grand Island, NY) containing 10% fetal bovine serum at 37° C in an atmosphere of 95 air and 5% CO2. The cells (about 8×10^5 /ml) were differentiated into neutrophil-like cells by treatment with 1.3% DMSO for six days (Harris, et al., J. Leukocyte Biol. 37: 407-422 (1985)). The cells were treated with the indicated levels of compactin or lovastatin by addition of a 1,000-fold concentrated stock solution to the appropriate concentration on day 4 of differentiation. […] In studies of the protective effect of mevalonic acid, the compound was added as the mevalonolactone (Sigma Chemical Co., St. Louis, MO) at a concentration of 1 mM to the cell culture on days 4 to 6. […]
O2 --formation by HL-60 cells was assessed by the SOD-sensitive reduction of cytochrome c. […] Cytochrome c reduction at 550nm was continuously monitored and maximal rate and extent of the reaction calculated.

Rap1 = assay: Metabolic labeling and immune precipitation of processed and unprocessed Rap1 in HL-60 cells; conditions: various concentrations
Method: Analysis of Rapl processing in HL-60 cells was performed by labeling cells (8×10^5 /ml) with 200μCi/ml ^35 S-Trans-label (ICN Biomedicals, Inc., Costa Mesa, CA) for 5 days during cell differentiation with 1.3% DMSO in Cys-Met-free medium containing 12% dialyzed fetal bovine serum. Various concentrations of compactin were included as indicated. Metabolically labeled cells were collected, washed once with isotonic NaCl, treated with 2.5 mM Hepes pH 7.5, 100 mM NaCl, 1 mM EDTA, 1 % Triton X-100, 2.5 μM PMSF, and 100U aprotonin. After a 15-minute incubation on ice, the cell lysates were pelleted in a microfuge for 2 minutes and then the supernatant was transferred to clean tubes containing 100 μl 4M NaCl, 5 μl 10% SDS, and 50 μl10% deoxycholate. The samples were boiled for two minutes, pelleted, and transferred to clean tubes containing 2 μl of the primary antibody, 142-24E05 (Chesa, et al., PNAS USA 84: 3234-3238 (1987); Bokoch, et al., J. Biol. Chem. 263: 16744-16749 (1988)). […]
In untreated cells, Rapl was present largely in the membrane fraction, with very little Rapl in the cytosol. […] Isoprenylation of Rapl was also assessed by metabolic labeling of the HL-60 cells with immune precipitation of Rap1, and analysis of the 22kD processed and 23kD unprocessed forms of Rap1 (Buss, et al., Mol. Cell, Biol. 11: 1523-1527 (1991)).

[4] = read-out: FMLP-stimulated O2- formation, Extent
[5] = read-out: FMLP-stimulated O2- formation, Rate
[6] = 4 μM compactin + 1 mM mevalonate
[7] = 10 μM compactin + 50 μg/ml cholesterol, n = 2
[8] = 10 μM compactin + 1 mM mevalonate

## CC[C@H](C)C(=O)O[C@H]1CCC=C2C=C[C@H](C)[C@H](CC[C@@H]3C[C@@H](O)CC(=O)O3)[C@H]21 [compactin]
[1]; [4]
  activity at 0.4 µM: 71 ± 10%
  activity at 2 µM: 36 ± 11%
  activity at 4 µM: 22 ± 1%
  activity at 10 µM: 12 ± 2.1%
[1]; [5]
  activity at 0.4 µM: 77 ± 10%
  activity at 2 µM: 47 ± 11%
  activity at 4 µM: 39 ± 4.1%
  activity at 10 µM: 15 ± 2.6%
[1]; various concentrations
  inhibition of O2- formation in response to FMLP: dose-dependent inhibition
[2]; 4 μM compactin
  FMLP-stimulated O2- formation, Extent: 28 ± 3.5 % of control
  FMLP-stimulated O2- formation, Rate: 43 ± 5.0 % of control
[2]; [6]
  FMLP-stimulated O2- formation, Extent: 96 ± 8.0 % of control
  FMLP-stimulated O2- formation, Rate: 97 ± 4.0 % of control
[2]; 10 μM compactin
  FMLP-stimulated O2- formation, Extent: 13 ± 0.4 % of control
  FMLP-stimulated O2- formation, Rate: 19 ± 3.9 % of control
[2]; [7]
  FMLP-stimulated O2- formation, Extent: 22 % of control
  FMLP-stimulated O2- formation, Rate: 28 % of control
[2]; [8]
  FMLP-stimulated O2- formation, Extent: 114 ± 1.6 % of control
  FMLP-stimulated O2- formation, Rate: 115 ± 7.6 % of control
[3]
  inhibition of O2- formation in response to PMA: loss in the ability of PMA to stimulate O2 --formation; also recorded: dose-dependent inhibition
Rap1
  22 kD processed form of Rap1: dose-dependent decrease
  23 kD unprocessed form of Rap1: proportional increase
